Test results: patent US12022832B2, “Compounds and methods for treating nematode infections” (The Governing Council of The University of Toronto, priority 2018, dated 2024)

Legend:
[1] = test system: C. elegans; assay: C. elegans acute motor (rubber-band, convulsion/paralysis) phenotype on solid substrate; type: in vivo, Caenorhabditis elegans; details: solid substrate, 80 minutes; compounds 55-12-6, 55-12-9, 55-12-12, 55-12-21, 55-12-23
Description: Worms are scored for the indicated phenotype (see legend); convulsions along the circumferential axis is characterized as the ‘shaker’ phenotype in C. elegans; convulsions along the anterior-posterior axis is characterized as the ‘rubber-band’ phenotype in C. elegans. 18 young-adult animals were scored at each time-point for rubber-band (animals spontaneously contract or do so upon touch on the nose with a platinum wire), hyperactive movement (observing rapid lateral nose movement) and shaker (spontaneous circumferential rotations). […] Data are showing the mean number of animals with each phenotype.
If a penetrant phenotype is observed, a dose-response analysis is performed; the EC50 is shown.
Each compound was added to the MYOB substrate before pouring to achieve desired concentration after diffusion through the media. The final concentration of dimethyl sulfoxide (DMSO) in each of the wells was […]. Young adult or fourth-staged larval worms are transferred into each well using a platinum wire pick.
˜25 young adult animals of each indicated strain were picked using a platinum wire onto 2% MYOB agar containing the indicated drug condition with 1% DMSO. […] 18 animals were scored per trial; data are the mean response of 2-3 replicates showing the standard error of the mean.

[2] = test system: C. elegans (L1); assay: C. elegans L1 viability, three day protocol; type: in vivo, Caenorhabditis elegans; details: 72 hours, relative to no-drug controls; compounds 55-11, 55-12-21, 55-12-23
[3] = test system: C. elegans (dauer); assay: C. elegans dauer viability; type: in vivo, Caenorhabditis elegans; details: 72 hours, relative to no-drug controls
[4] = test system: C. elegans (adult); assay: C. elegans adult viability; type: in vivo, Caenorhabditis elegans; details: 72 hours, relative to no-drug controls
[5] = test system: P. pacificus (L1); assay: P. pacificus L1 viability; type: in vivo, Pristionchus pacificus; details: 72 hours, relative to no-drug controls
[6] = test system: P. hermaphrodita (L1); assay: P. hermaphrodita L1 viability; type: in vivo, Phasmarhabditis hermaphrodita; details: 72 hours, relative to no-drug controls
[7] = test system: M. incognita (J2); assay: M. incognita J2 viability in vitro; type: in vivo, Meloidogyne incognita; details: assay done using 45 uM; 48 or 72 hours; other compounds
[8] = test system: M. incognita; assay: M. incognita Quick Soil Test (tomato); type: in vivo, Meloidogyne incognita; details: 45 uM, ~2000 J2 per tomato plant, worms in soil 4 days
[9] = test system: M. incognita (eggs); assay: M. incognita egg-hatch assay; type: in vivo, Meloidogyne incognita; details: 45 uM of each compound, ~50 eggs per well; effect threshold not stated

| SMILES | C. elegans acute motor phene: concentration at which 10-50% of the animals exhibit convulsion/paralysis phenotypes [1] [μM] | C. elegans (L1 viability): lowest concentration tested in which greater than 20% of animals were dead [2] [µM] | C. elegans (dauer viability): lowest concentration tested in which at least 80% of animals were dead [3] | C. elegans (adult viability): lowest concentration tested in which at least 80% of animals were dead [4] | P. pacificus (L1 viability): lowest concentration tested in which at least 80% of animals were dead [5] [µM] | P. hermaphrodita (L1 viability): lowest concentration tested in which at least 80% of animals were dead [6] [µM] | M. incognita (J2 viability in vitro): concentration giving >20% and <80% death [7] | M. incognita (Quick Soil Test): concentration giving >80% killing ([8]; J2s counted in root tissue) [µM] | M. incognita (Egg Hatch Rate) [9] | M. incognita (Quick Soil Test): concentration giving 10-20% killing ([8]; other compounds) [uM] | M. incognita (Hatching Mobility) [9] |
| --- | --- | --- | --- | --- | --- | --- | --- | --- | --- | --- | --- |
| CCCc1ccnc(-c2ccc(OC(F)F)cc2)c1 [IIIoo (wact-55-12-21), 2-(4-(difluoromethoxy)phenyl)-4-propylpyridine] | 60 | 60 | np | np | 30 | 30 | np | 45 | np | – | – |
| CCCc1ccc(-c2cccc(OC(F)F)c2)nc1 [IIIqq (wact-55-12-23), 2-(3-(difluoromethoxy)phenyl)-5-propylpyridine] | 60 | 60 | np | np | 30 | 15 | np | – | np | 45 | np |
